Test results from patent US8859571B2, “Quinazoline compounds” (GlaxoSmithKline LLC, priority 2009, dated 2014).
Where “and” joins values, the source holds several entries; their conditions need not be identical. Equal values may be shown once. Where a name gives a salt, the structure may show the parent alone.

Target: T1, Full length human TNNI3K (hTNNI3K) (Homo sapiens, UniProt Q59H18)
T1 construct: His-MBP-TEV-Full length human TNNI3K (hTNNI3K); His (N); MBP (N); TEV cleavage site (N); made in house; host or cells: baculovirus system (printed 'Baculokinase system')
T1 sequence (Q59H18 1-835): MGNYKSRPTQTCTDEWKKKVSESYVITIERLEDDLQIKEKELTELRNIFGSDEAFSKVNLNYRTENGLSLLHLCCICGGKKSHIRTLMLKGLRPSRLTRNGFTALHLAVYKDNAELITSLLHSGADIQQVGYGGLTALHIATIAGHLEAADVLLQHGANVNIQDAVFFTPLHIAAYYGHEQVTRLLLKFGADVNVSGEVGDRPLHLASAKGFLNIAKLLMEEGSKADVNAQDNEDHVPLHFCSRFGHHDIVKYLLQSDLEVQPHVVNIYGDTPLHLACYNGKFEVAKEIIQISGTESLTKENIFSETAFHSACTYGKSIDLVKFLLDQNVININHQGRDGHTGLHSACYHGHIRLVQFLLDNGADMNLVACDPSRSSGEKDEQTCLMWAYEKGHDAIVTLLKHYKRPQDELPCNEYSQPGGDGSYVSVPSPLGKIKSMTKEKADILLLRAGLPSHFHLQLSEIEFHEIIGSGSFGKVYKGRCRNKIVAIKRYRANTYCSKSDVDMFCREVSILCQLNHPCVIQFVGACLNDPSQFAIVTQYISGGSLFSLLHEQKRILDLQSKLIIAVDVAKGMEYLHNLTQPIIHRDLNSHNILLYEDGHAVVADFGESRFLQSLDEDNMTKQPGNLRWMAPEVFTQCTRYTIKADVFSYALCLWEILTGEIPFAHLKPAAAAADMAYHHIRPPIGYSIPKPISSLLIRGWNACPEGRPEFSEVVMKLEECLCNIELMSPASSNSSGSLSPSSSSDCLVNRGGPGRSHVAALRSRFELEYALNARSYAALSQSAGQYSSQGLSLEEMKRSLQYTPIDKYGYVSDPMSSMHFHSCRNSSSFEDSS
Assay: Fluorescent polarization assay of compound inhibition on hTNNI3K ATP binding (Biological Assay Method I)
Settings: displacement of fluorescent ligand from hTNNI3K ATP binding pocket; mean of a minimum of 2 experiments; read-out: pXC50 (the source's name) (converted)
Text: Materials: His-MBP-TEV-Full length human TNNI3K (hTNNI3K) was expressed in Baculokinase system and purified from amylase affinity column followed by Superdex200. The fluorescent ligand 5-({[2-({[3-({4-[(5-hydroxy-2-methylphenyl)amino]-2-pyrimidinyl}amino)phenyl]carbonyl}amino)ethyl]amino}carbonyl)-2-(6-hydroxy-3-oxo-3H-xanthen-9-yl)benzoic acid was used. The preparation of this fluorescent ligand is disclosed in U.S. Provisional Patent Application No. 61/237,815 filed Aug. 28, 2009, the disclosure of which is incorporated by reference herein. The other buffer components, including MgCl2 (Catalog Number M1028), Bis-Tris (Catalog Number B7535), DTT (Catalog Number D9779) and Chaps (Catalog Number C3023) were purchased from Sigma-Aldrich.
Biological Assay Method I:
A fluorescent polarization assay was used to determine does response of compound inhibition on hTNNI3K ATP binding.
Solution 1: Ten (10) mL of a 5 nM 5-({[2-({[3-({4-[(5-hydroxy-2-methylphenyl)amino]-2-pyrimidinyl}amino)phenyl]carbonyl}amino)ethyl]amino}carbonyl)-2-(6-hydroxy-3-oxo-3H-xanthen-9-yl)benzoic acid solution (Solution 1) was prepared by mixing 5 μL of 1M DTT and 80 μL of 10% (w/v) Chaps and 5 μL of a 10 μM 5-({[2-({[3-({4-[(5-hydroxy-2-methylphenyl)amino]-2-pyrimidinyl}amino)phenyl]carbonyl}amino) ethyl]amino}carbonyl)-2-(6-hydroxy-3-oxo-3H-xanthen-9-yl)benzoic acid stock solution into 9910 μL buffer (20 mM Tris, 15 mM MgCl2, pH 7.5). (Stock solution: 10 μM solution of 5-({[2-({[3-({4-[(5-hydroxy-2-methylphenyl)amino]-2-pyrimidinyl}amino)phenyl]carbonyl}amino)ethyl]amino}carbonyl)-2-(6-hydroxy-3-oxo-3H-xanthen-9-yl)benzoic acid in 100% DMSO)
Solution 2 was formed by mixing 53.8 μL of 2.6 μM hTNNI3K with a 6946.2 μL aliquot of Solution 1 (the above 5-({[2-({[3-({4-[(5-hydroxy-2-methylphenyl)amino]-2-pyrimidinyl}amino)phenyl]carbonyl}amino)ethyl]amino}carbonyl)-2-(6-hydroxy-3-oxo-3H-xanthen-9-yl)benzoic acid solution) to make up a 7 mL of mixture of hTNNI3K and 5-({[2-({[3-({4-[(5-hydroxy-2-methylphenyl)amino]-2-pyrimidinyl}amino)phenyl]carbonyl}amino)ethyl]amino}carbonyl)-2-(6-hydroxy-3-oxo-3H-xanthen-9-yl)benzoic acid (Solution 2).
Fifty (50) nL of inhibitors in DMSO (or DMSO controls) were stamped into a 384-well low volume Greiner black plate, followed by addition of 5 μL of Solution 1 to column 18 and 5 μL Solution 2 to columns 1-17 and 19-24 of the plate. The plate was then spun at 500 rpm for 30 seconds and incubated at room temperature for 60 minutes. After that, the fluorescent polarization was measured on Analyst (ex/em: 485/530 nm, Dichroic: 505). For dose response experiments, normalized data were fit by ABASE/XC50 and pXC50=(log((b−y)/(y−a)))/d−log(x), where x is the compound concentration and y is the % activity at specified compound concentration, a is the minimum % activity, b is the maximum % activity, and d is the Hill slope.
The pXC50s are averaged to determine a mean value, for a minimum of 2 experiments.

IC50	SMILES
0.01 to 0.1 µM	CNS(=O)(=O)c1ccc(OCC(F)(F)F)c(Nc2ncnc3cc(OC)cc(OCCOC)c23)c1 [Example 60, N-methyl-3-[(7-(methyIoxy)-5-{[2-(methyloxy)ethyl]oxy}-4-quinazolinyl)amino]-4-[(2,2,2-trifluoroethyl)oxy]benzene-sulfonamide hydrochloride]
0.01 to 0.1 µM	CNS(=O)(=O)c1ccc(OCC(F)(F)F)c(Nc2ncnc3cc(OC)cc(OC4CCOCC4)c23)c1 [Example 61, N-methyl-3-{[7-(methyloxy)-5-(tetrahydro-2H-pyran-4-yloxy)-4-quinazolinyl]amino}-4-[(2,2,2-trifluoroethyl)oxy] benzenesulfonamide]
0.001 to 0.01 µM	CNS(=O)(=O)c1ccc(OC(C)C(F)(F)F)c(Nc2ncnc3cc(OC)c(OC)c(OC)c23)c1 (stereo not drawn) [Example 62, N-methyl-4-[(2,2,2-trifluoro-1-methylethyl)oxy]-3-{[5,6,7-tris(methyloxy)-4-quinazolinyl]amino}benzene sulfonamide trifluoroacetate]
0.01 to 0.1 µM	CCOc1cc(OC)cc2ncnc(Nc3cc(S(=O)(=O)NC)ccc3OC(F)(F)F)c12 [Example 64, 3-{[5-(ethyloxy)-7-(methyloxy)-4-quinazolinyl]amino}-N-methyl-4-[(trifluoromethyl)oxy] benzenesulfonamide]
0.01 to 0.1 µM	CNS(=O)(=O)c1ccc(OC(F)(F)F)c(Nc2ncnc3cc(OC)cc(OC(C)C)c23)c1 [Example 65, N-methyl-3-{[5-[(1-methylethyl)oxy]-7-(methyloxy)-4-quinazolinyl]amino}-4-[(trifluoromethyl)oxy] benzenesulfonamide]
0.001 to 0.01 µM	CCOc1cc(OC)cc2ncnc(Nc3cc(S(=O)(=O)NC)ccc3OC(C)C(F)(F)F)c12 (stereo not drawn) [Example 66, 3-{[5-(ethyloxy)-7-(methyloxy)-4-quinazolinyl]amino}-N-methyl-4-[(2,2,2-trifluoro-1-methylethyl)oxy] benzenesulfonamide]
0.01 to 0.1 µM	CNS(=O)(=O)c1ccc(OC(C)C(F)(F)F)c(Nc2ncnc3cc(OC)cc(OC(C)C)c23)c1 (stereo not drawn) [Example 67, N-methyl-3-{[5-[(1-methylethyl)oxy]-7-(methyloxy)-4-quinazolinyl]amino}-4-[(2,2,2-trifluoro-1-methylethyl)oxy] benzenesulfonamide]
0.001 to 0.01 µM and ~0.00398 µM	CNS(=O)(=O)c1ccc(S(C)(=O)=O)c(Nc2ncnc3cc(OC)c(OC)cc23)c1 [Example 68, 3-{[6,7-bis(methyloxy)-4-quinazolinyl]amino}-N-methyl-4-(methylsulfonyl) benzenesulfonamide trifluoroacetate]
0.01 to 0.1 µM	CNS(=O)(=O)c1ccc(OC(C)C(F)(F)F)c(Nc2ncnc3cc(OC)c(OC)cc23)c1 (stereo not drawn) [Example 69, 3-{[6,7-bis(methyloxy)-4-quinazolinyl]amino}-N-methyl-4-[(2,2,2-trifluoro-1-methylethyl)oxy] benzenesulfonamide]
0.01 to 0.1 µM	CNS(=O)(=O)c1ccc(OCC(F)(F)F)c(Nc2ncnc3cc(OC)c(I)cc23)c1 [Example 70, 3-{[6-iodo-7-(methyloxy)-4-quinazolinyl]amino}-N-methyl-4-[(2,2,2-trifluoroethyl)oxy] benzenesulfonamide]
0.001 to 0.01 µM	CCOc1cc2ncnc(Nc3cc(S(=O)(=O)NC)ccc3OCC(F)(F)F)c2cc1OCC [Example 71, 3-{[6,7-bis(ethyloxy)-4-quinazolinyl]amino}-N-methyl-4-[(2,2,2-trifluoroethyl)oxy] benzenesulfonamide]
0.001 to 0.01 µM	CNS(=O)(=O)c1ccc(N(C)C)c(Nc2ncnc3cc(OCCCN4CCOCC4)ccc23)c1 [Example 73, 4-(dimethylamino)-N-methyl-3-[(7-{[3-(4-morpholinyl)propyl]oxy}-4-quinazolinyl)amino]benzenesulfonamide hydrochloride]
0.01 to 0.1 µM	CNS(=O)(=O)c1ccc(OCC(F)(F)F)c(Nc2ncnc3cc(OCCCN4CCOCC4)ccc23)c1 [Example 74, N-methyl-3-[(7-{[3-(4-morpholinyl)propyl]oxy}-4-quinazolinyl)amino]-4-[(2,2,2-trifluoroethyl)oxy] benzenesulfonamide trifluoroacetate]
0.01 to 0.1 µM	CNS(=O)(=O)c1ccc(OCC(F)(F)F)c(Nc2ncnc3cc(OCCCOC)ccc23)c1 [Example 75, N-methyl-3-[(7-{[3-(methyloxy)propyl]oxy}-4-quinazolinyl)amino]-4-[(2,2,2-trifluoroethyl)oxy]benzenesulfonamide]
0.001 to 0.01 µM	CNS(=O)(=O)c1ccc(N(C)C)c(Nc2ncnc3cc(OCCCOC)ccc23)c1 [Example 76, 4-(dimethylamino)-N-methyl-3-[(7-{[3-(methyloxy)propyl]oxy}-4-quinazolinyl)amino] benzenesulfonamide]
0.01 to 0.1 µM	CNS(=O)(=O)c1ccc(S(C)(=O)=O)c(Nc2ncnc3cc(OC)cc(OC)c23)c1 [Example 77, 3-{[5,7-bis(methyloxy)-4-quinazolinyl]amino}-N-methyl-4-(methylsulfonyl)benzenesulfonamide trifluoroacetate]
0.01 to 0.1 µM	CCOc1cc2ncnc(Nc3cc(S(=O)(=O)NC)ccc3OCC(F)(F)F)c2cc1OC [Example 80, 3-(7-ethoxy-6-methoxy-quinazolin-4-ylamino)-N-methyl-4-(2,2,2-trifluoro-ethoxy)-benzenesulfonamide trifluoroacetate]
0.01 to 0.1 µM	CNS(=O)(=O)c1ccc(OCC(F)(F)F)c(Nc2ncnc3cc(OCCOC)c(OC)cc23)c1 [Example 81, 3-[6-methoxy-7-(2-methoxy-ethoxy)-quinazolin-4-ylamino]-N-methyl-4-(2,2,2-trifluoro-ethoxy)-benzenesulfonamide trifluoroacetate]
0.01 to 0.1 µM	CNS(=O)(=O)c1ccc(N(C)C)c(Nc2ncnc3ccc(N)cc23)c1 [Example 84, 3-((6-aminoquinazolin-4-yl)amino)-4-(dimethylamino)-N-methylbenzenesulfonamide]
0.01 to 0.1 µM	CNS(=O)(=O)c1ccc(N(C)C)c(Nc2ncnc3cc(N)ccc23)c1 [Example 85, 3-((7-aminoquinazolin-4-yl)amino)-4-(dimethylamino)-N-methylbenzenesulfonamide]
0.01 to 0.1 µM	CNS(=O)(=O)c1ccc(N(C)C)c(Nc2ncnc3ccc(N(C)C)cc23)c1 [Example 86, 4-(dimethylamino)-3-((6-(dimethylamino)quinazolin-4-yl)amino)-N-methylbenzenesulfonamide bis(trifluoroacetate)]
